Source: patent US11857522B2, “Compositions containing tucaresol or its analogs” (BeyondSpring Pharmaceuticals, Inc., priority 2016, dated 2024)

Tested on: MC-38 tumor cells
Test: MC-38 tumor model, comparison of tucaresol and CTLA-4 antibody (Example 9)
Type: in vivo, mice
Settings: FIG. 4
Description: The treatment with the combination of tucaresol, a PD-1 antibody, and CTLA-4 antibody was compared with the combination of PD-1 antibody and CTLA-4 antibody for their tumor inhibition effects. The tests were performed using seven to ten-week old immune competent mice that were injected subcutaneously with MC-38 tumor cells.
Three testing groups were prepared. Group A was administered with PD-1 antibody (3 mg/kg)/CTLA-4 antibody (3 mg/kg) combined treatment; Group B was administered with a tucaresol (10 mg/kg)/PD-1 antibody (3 mg/kg) CTLA-4 antibody (3 mg/kg) combined treatment; and Group C was administered with a PD-1 antibody (3 mg/kg)/CTLA-4 antibody (10 mg/kg) combined treatment. […]
Each treatment started at tumor size between 40-150 mm^3 and continued until Day 24. To determine the efficacy of each treatment, the following data were collected: mortality rate; the body weight of the mice assessed twice weekly both prior to treatments; the rate of tumor growth as determined by the tumor size measurement (twice every week); the tumor growth index; overall survival rate; the time required to double tumor size and the tumor weight at necropsy.

Which results are given for O=Cc1c(O)cccc1OCc1ccc(C(=O)O)cc1 [tucaresol, 4-[(2-formyl-3-hydroxy-phenoxy)methyl]benzoic acid]?
anti-tumor effect of the combination (MC 38 tumor growth) (tucaresol 10 mg/kg added to PD-1 antibody (3 mg/kg)/CTLA-4 antibody (3 mg/kg), compared with raising CTLA-4 antibody from 3 mg/kg to 10 mg/kg, until Day 24): increased the anti-tumor effect of the combination to a greater extent than increasing the dose of the CTLA-4 antibody; inhibiting tumor growth (used together with immune checkpoint inhibitors such as PD-1 antibody, MC-38 tumors in mice): more effective in inhibiting tumor growth than CTLA-4 antibody
